Data from PMC9142583, “Structural basis for broad anti-phage immunity by DISARM” (Nature Communications, 2022).
Values belong to the molecule of their own block, whether it stands above or below them.

Legend:
DrmAB [1] = target: T1, DrmAB (Serratia, UniProt A0A979HMQ0); experiment: cryo-EM structure ([…]-3.[…] A); assay type: binding; conditions: 1 mM ADP, 10 uM DrmAB; pH 7.4, ~25 C; canonical ATP site between RecA1 and RecA2 of DrmA; also in DNA-bound complex 7S9W
T1 construct: DrmAB heterodimer (~1:1, ~220 kDa) co-expressed in E. coli BL21-AI; Ni-NTA and size exclusion
T1 sequence (A0A979HMQ0 1-1325): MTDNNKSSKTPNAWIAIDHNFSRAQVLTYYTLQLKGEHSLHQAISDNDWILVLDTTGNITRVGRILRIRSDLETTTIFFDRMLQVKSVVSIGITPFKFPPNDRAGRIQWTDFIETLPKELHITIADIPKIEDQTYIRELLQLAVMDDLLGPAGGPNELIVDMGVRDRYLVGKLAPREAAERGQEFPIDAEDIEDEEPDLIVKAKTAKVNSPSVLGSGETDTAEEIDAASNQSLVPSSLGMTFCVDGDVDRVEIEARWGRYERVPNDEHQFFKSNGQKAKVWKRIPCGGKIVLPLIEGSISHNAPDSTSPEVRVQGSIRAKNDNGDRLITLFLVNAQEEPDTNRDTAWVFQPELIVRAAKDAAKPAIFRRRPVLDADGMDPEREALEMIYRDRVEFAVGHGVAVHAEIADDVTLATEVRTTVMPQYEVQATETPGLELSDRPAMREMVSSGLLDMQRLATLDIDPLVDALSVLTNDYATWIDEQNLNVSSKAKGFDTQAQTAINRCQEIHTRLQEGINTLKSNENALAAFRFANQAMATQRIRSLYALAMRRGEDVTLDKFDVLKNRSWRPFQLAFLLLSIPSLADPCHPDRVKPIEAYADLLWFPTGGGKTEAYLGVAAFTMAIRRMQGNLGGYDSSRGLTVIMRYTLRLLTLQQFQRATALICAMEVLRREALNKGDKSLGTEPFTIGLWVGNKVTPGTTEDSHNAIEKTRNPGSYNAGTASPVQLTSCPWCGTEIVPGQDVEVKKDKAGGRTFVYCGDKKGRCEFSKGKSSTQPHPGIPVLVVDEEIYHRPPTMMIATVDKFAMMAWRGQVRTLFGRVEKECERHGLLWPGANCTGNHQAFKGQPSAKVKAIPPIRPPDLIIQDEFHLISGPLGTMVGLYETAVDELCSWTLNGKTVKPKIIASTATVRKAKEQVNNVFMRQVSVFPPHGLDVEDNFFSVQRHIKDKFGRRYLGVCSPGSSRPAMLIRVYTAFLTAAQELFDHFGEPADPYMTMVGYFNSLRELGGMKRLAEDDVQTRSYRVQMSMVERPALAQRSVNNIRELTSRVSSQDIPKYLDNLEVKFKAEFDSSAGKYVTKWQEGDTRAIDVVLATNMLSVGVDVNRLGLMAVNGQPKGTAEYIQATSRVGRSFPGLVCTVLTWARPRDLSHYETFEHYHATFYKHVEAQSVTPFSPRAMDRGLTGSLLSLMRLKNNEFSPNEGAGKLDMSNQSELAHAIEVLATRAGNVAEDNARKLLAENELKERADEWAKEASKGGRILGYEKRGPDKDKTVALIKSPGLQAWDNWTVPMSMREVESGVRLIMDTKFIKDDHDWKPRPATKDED
T1 sequence (A0A979HMQ1 1-619 partner): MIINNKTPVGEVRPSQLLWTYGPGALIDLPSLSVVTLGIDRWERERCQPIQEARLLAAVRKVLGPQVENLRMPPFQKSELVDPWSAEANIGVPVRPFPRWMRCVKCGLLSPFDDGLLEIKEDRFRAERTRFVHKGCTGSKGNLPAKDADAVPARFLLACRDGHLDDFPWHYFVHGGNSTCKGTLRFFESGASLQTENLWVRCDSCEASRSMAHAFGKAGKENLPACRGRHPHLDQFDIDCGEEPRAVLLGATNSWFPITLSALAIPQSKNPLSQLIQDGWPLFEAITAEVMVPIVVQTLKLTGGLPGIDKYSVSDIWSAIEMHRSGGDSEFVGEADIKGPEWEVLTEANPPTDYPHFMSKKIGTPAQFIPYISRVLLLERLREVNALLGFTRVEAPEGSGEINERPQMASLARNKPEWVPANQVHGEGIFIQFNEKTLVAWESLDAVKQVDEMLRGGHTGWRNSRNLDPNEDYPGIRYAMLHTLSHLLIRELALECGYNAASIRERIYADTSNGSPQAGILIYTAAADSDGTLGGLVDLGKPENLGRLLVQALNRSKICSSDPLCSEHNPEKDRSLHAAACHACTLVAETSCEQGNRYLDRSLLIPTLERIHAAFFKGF

DrmAB [2] = target: T1, DrmAB; experiment: ATPase assay, absorbance at […] nm; assay type: biochemical; conditions: needs unmethylated DNA stem loop; mere turnover
[3] = target: DrmB (Serratia sp. SCBI DISARM DUF1998-containing protein) (Serratia sp. SCBI); experiment: co-purification (Ni-NTA, then SEC); proteins co-expressed in E. coli BL21-AI; His6-DrmB captured on Ni-NTA (25 mM HEPES pH 8, 600 mM NaCl), then HiLoad 16/600 Superdex 200 (25 mM HEPES pH 8, 150 mM NaCl, 5% glycerol, 1 mM DTT), 4 °C; fractions checked by SDS-PAGE

Molecule: Nc1ncnc2c1ncn2[C@@H]1O[C@H](COP(=O)(O)OP(=O)(O)O)[C@@H](O)[C@H]1O [ADP]
cryo-EM structure (3.3-3.4 A) (DrmAB [1]): We observed strong density corresponding to ADP within our DNA-bound (Fig. 2e) and DNA-free maps

Molecule: Nc1ncnc2c1ncn2[C@@H]1O[C@H](COP(=O)(O)OP(=O)(O)OP(=O)(O)O)[C@@H](O)[C@H]1O [ATP]
ATPase assay, absorbance at 360 nm (DrmAB [2]): Robust ATPase activity is strongly stimulated by unmethylated DNA

stoichiometry N [3]: 1
Molecule: DrmA (Serratia sp. SCBI DISARM helicase) (natural protein)
